Experimental data: US20230407243A1, “GENETIC PLATFORM TO INVESTIGATE THE FUNCTIONS OF BACTERIAL DRUG EFFLUX PUMPS” (priority 2022, published 2023)

Tests used:
Type in all cases: cell-based, Escherichia coli
[1] = tested on: EKO-35 araC::macAB Pore; assay: MIC susceptibility profiling, porinated efflux platform; details: for Fold changes of MICs: EKO-35 araC::macAB Pore compared to EKO-35-Pore; for Minimum inhibitory concentration: EKO-35 araC::macAB Pore, technical duplicate
Method in brief: (§1)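 E. coli strains carrying a genomically integrated constitutive fhuA ΔC/Δ4L pore were grown 18 h in LB at 37 °C, then diluted 1/2000 in MHB II from OD600 ~1.0. Compounds were tested in duplicate, 2-fold serial titration, for 18 h at 37 °C with shaking. MIC came from OD600 with the pre-incubation background subtracted.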

[2] = tested on: EKO-35 araC::mdtBC Pore; assay: as above; details: for Minimum inhibitory concentration: EKO-35 araC::mdtBC Pore, technical duplicate
Method in brief: as §1

[3] = tested on: EKO-35 araC::acrBD408A Pore; assay: as above; details: for Fold changes of MICs: EKO-35 araC::acrBD408A Pore compared to EKO-35-Pore; for Minimum inhibitory concentration: EKO-35 araC::acrBD408A Pore, technical duplicate
Method in brief: as §1

[4] = tested on: EKO-35 araC::acrB Pore; assay: as above; details: for Fold changes of MICs: EKO-35 araC::acr-B Pore compared to EKO-35-Pore; for Minimum inhibitory concentration, EKO-35 araC::acrB Pore: Table 14A, porinated, technical duplicate
Method in brief: as §1

[5] = tested on: EKO-35 araC::mdtEF Pore; assay: as above; details: Table 14A; porinated; technical duplicate
Method in brief: as §1

[6] = tested on: EKO-35 araC::emrKY Pore; assay: as above; details: for Fold changes of MICs: EKO-35 araC::emrKY Pore compared to EKO-35-Pore; for Minimum inhibitory concentration: EKO-35 araC::emrKY Pore, technical duplicate
Method in brief: as §1

[7] = tested on: EKO-35 araC::acrD Pore; assay: as above; details: for Fold changes of MICs: EKO-35 araC::acrD Pore compared to EKO-35-Pore; for Minimum inhibitory concentration, EKO-35 araC::acrD Pore: Table 14A, porinated, technical duplicate
Method in brief: as §1

[8] = tested on: EKO-35 araC::mexCD Pore; assay: as above; details: for Fold changes of MICs: EKO-35 araC::mexCD Pore compared to EKO-35-Pore; for Minimum inhibitory concentration: EKO-35 araC::mexCD Pore, technical duplicate
Method in brief: as §1

[9] = tested on: EKO-35 araC::acrEF Pore; assay: as above; details: for Minimum inhibitory concentration, EKO-35 araC::acrEF Pore: Table 14A, porinated, technical duplicate
Method in brief: as §1

[10] = tested on: EKO-35 araC::emrAB Pore; assay: as above; details: for Fold changes of MICs: EKO-35 araC::emrAB Pore compared to EKO-35-Pore; for Minimum inhibitory concentration: EKO-35 araC::emrAB Pore, technical duplicate
Method in brief: as §1

[11] = tested on: EKO-35-Pore; assay: MIC susceptibility profiling, porinated strain; details: for Fold changes of MICs: EKO-35-Pore compared to EKO-35-Pore (reference); for Minimum inhibitory concentration (MIC), Pore EKO-35: Table 10, with pore; for Minimum inhibitory concentration (MIC), Pore EKO-35 / Minimum inhibitory concentration, EKO-35-Pore: technical duplicate; for Minimum inhibitory concentration, EKO-35-Pore: Table 14A, porinated
Method in brief: as §1

[12] = tested on: ΔtolC-Pore; assay: microbe, parasite or virus in culture; details: technical duplicate; for Minimum inhibitory concentration (MIC), Pore ΔtolC: Table 10, with pore; for Minimum inhibitory concentration, ΔtolC-Pore: Table 14A, porinated
Method in brief: as §1

[13] = tested on: wild-type (WT) K-12-Pore; assay: microbe, parasite or virus in culture; details: technical duplicate; for Minimum inhibitory concentration (MIC), Pore K-12: Table 10, with pore; for Minimum inhibitory concentration, K-12 (WT)-Pore: Table 14A, porinated
Method in brief: as §1

[14] = tested on: wild-type E. coli K-12 str. BW25113; assay: microbe, parasite or virus in culture; details: technical duplicate; for Minimum inhibitory concentration (MIC), K-12: Table 10, without pore; for Minimum Inhibitory Concentration, K-12: Table 13A, non-porinated
Method in brief: (§2)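 Overnight LB cultures resuspended in PBS to OD600 ~1.0, diluted 1/2000 into MHB II, and added to 2-fold serial compound dilutions in duplicate with DMSO controls. Incubated 18 h at 37° C. with 900 rpm shaking; OD600 read before and after, background subtracted, to derive MIC.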

[15] = tested on: E. coli EKO-35; assay: microbe, parasite or virus in culture; details: for Fold change of MICs: EKO-35 compared to EKO-35 (reference); for Minimum inhibitory concentration (MIC), EKO-35: Table 10, without pore; for Minimum inhibitory concentration (MIC), EKO-35 / Minimum Inhibitory Concentration, EKO-35: technical duplicate; for Minimum Inhibitory Concentration, EKO-35: Table 13A, non-porinated; for susceptibility of EKO-35 to the compound: synthetic efflux substrates of FIG. 12
Method in brief: as §2

[16] = tested on: E. coli ΔtolC; assay: microbe, parasite or virus in culture; details: technical duplicate; for Minimum inhibitory concentration (MIC), ΔtolC: Table 10, without pore; for Minimum Inhibitory Concentration, ΔtolC: Table 13A, non-porinated
Method in brief: as §2

[17] = tested on: EKO-35 araC::acrEF; assay: MIC susceptibility profiling, efflux platform; details: for Fold change of MICs: EKO-35 araC::acrEF compared to EKO-35; for Minimum Inhibitory Concentration, EKO-35 araC::acrEF: Table 13A, non-porinated, technical duplicate
Method in brief: as §2

[18] = tested on: EKO-35 araC::emrAB; assay: MIC susceptibility profiling, efflux platform; details: for Fold change of MICs: EKO-35 araC::emrAB compared to EKO-35; for Minimum Inhibitory Concentration, EKO-35 araC::emrAB: Table 13B, non-porinated, technical duplicate
Method in brief: as §2

[19] = tested on: EKO-35 araC::macAB; assay: MIC susceptibility profiling, efflux platform; details: for Fold change of MICs: EKO-35 araC::macAB compared to EKO-35; for Minimum Inhibitory Concentration, EKO-35 araC::macAB: Table 13B, non-porinated, technical duplicate
Method in brief: as §2

| SMILES | Fold changes of MICs [1] | Minimum inhibitory concentration [1] | Minimum inhibitory concentration [2] | Fold changes of MICs [3] | Minimum inhibitory concentration [3] | Fold changes of MICs [4] | Minimum inhibitory concentration, EKO-35 araC::acrB Pore [4] | Minimum inhibitory concentration, EKO-35 araC::mdtEF Pore [5] | Fold changes of MICs [6] | Minimum inhibitory concentration [6] | Fold changes of MICs [7] | Minimum inhibitory concentration, EKO-35 araC::acrD Pore [7] | Fold changes of MICs [8] | Minimum inhibitory concentration [8] | Minimum inhibitory concentration, EKO-35 araC::acrEF Pore [9] | Fold changes of MICs [10] | Minimum inhibitory concentration [10] | Fold changes of MICs [11] | Minimum inhibitory concentration (MIC), Pore EKO-35 [11] | Minimum inhibitory concentration, EKO-35-Pore [11] | also measured |
| --- | --- | --- | --- | --- | --- | --- | --- | --- | --- | --- | --- | --- | --- | --- | --- | --- | --- | --- | --- | --- | --- |
| CC(C)(C)c1cc(C(=O)NNC(=O)Nc2cccc3ccccc23)n(Cc2ccc(F)cc2)n1 [compound 4] | 2 fold | 5 µg/mL | 2.5 µg/mL | 1 fold | 2.5 µg/mL | 128 fold | 320 µg/mL | 320 µg/mL | 1 fold | 1.25 µg/mL | 4 fold | 10 µg/mL | 16 fold | 40 µg/mL | 320 µg/mL | 8 fold | 20 µg/mL | 1 fold | 2.5 µg/mL | 2.5 µg/mL | Fold changes of MICs ([2]; EKO-35 araC::mdtBC Pore compared to EKO-35-Pore): 1 fold; Minimum inhibitory concentration (MIC), Pore ΔtolC [12]: 1.25 µg/mL; Minimum inhibitory concentration, ΔtolC-Pore [12]: 1.25 µg/mL; Minimum inhibitory concentration (MIC), Pore K-12 [13]: 320 µg/mL; Minimum inhibitory concentration, K-12 (WT)-Pore [13]: 320 µg/mL; Minimum inhibitory concentration (MIC), K-12 [14]: 320 µg/mL; Minimum Inhibitory Concentration, K-12 [14]: 320 µg/mL; Fold change of MICs [15]: 1 fold; Minimum inhibitory concentration (MIC), EKO-35 [15]: 20 µg/mL; Minimum Inhibitory Concentration, EKO-35 [15]: 20 µg/mL; susceptibility of EKO-35 to the compound [15]: susceptible; Minimum inhibitory concentration (MIC), ΔtolC [16]: 10 µg/mL; Minimum Inhibitory Concentration, ΔtolC [16]: 10 µg/mL; Fold change of MICs [17]: 16 fold; Minimum Inhibitory Concentration, EKO-35 araC::acrEF [17]: 320 µg/mL; Fold change of MICs [18]: 16 fold; Minimum Inhibitory Concentration, EKO-35 araC::emrAB [18]: 320 µg/mL; Fold change of MICs [19]: 1 fold; Minimum Inhibitory Concentration, EKO-35 araC::macAB [19]: 20 µg/mL |
| O=c1oc(-c2ccccc2Cl)nn1-c1ccc(C(F)(F)F)cn1 [compound 5] | 1 fold | 10 µg/mL | 10 µg/mL | 1 fold | 20 µg/mL | 16 fold | 320 µg/mL | 320 µg/mL | 1 fold | 10 µg/mL | 1 fold | 10 µg/mL | 16 fold | 320 µg/mL | 320 µg/mL | 16 fold | 320 µg/mL | 1 fold | 20 µg/mL | 20 µg/mL | Fold changes of MICs ([9]; EKO-35 araC::acrEF Pore compared to EKO-35-Pore): 16 fold; Minimum inhibitory concentration (MIC), Pore ΔtolC [12]: 2.5 µg/mL; Minimum inhibitory concentration, ΔtolC-Pore [12]: 2.5 µg/mL; Minimum inhibitory concentration (MIC), Pore K-12 [13]: 320 µg/mL; Minimum inhibitory concentration, K-12 (WT)-Pore [13]: 320 µg/mL; Minimum inhibitory concentration (MIC), K-12 [14]: 320 µg/mL; Minimum Inhibitory Concentration, K-12 [14]: 320 µg/mL; Fold change of MICs [15]: 1 fold; Minimum inhibitory concentration (MIC), EKO-35 [15]: 20 µg/mL; Minimum Inhibitory Concentration, EKO-35 [15]: 20 µg/mL; susceptibility of EKO-35 to the compound [15]: susceptible; Minimum inhibitory concentration (MIC), ΔtolC [16]: 10 µg/mL; Minimum Inhibitory Concentration, ΔtolC [16]: 10 µg/mL; Fold change of MICs [17]: 16 fold; Minimum Inhibitory Concentration, EKO-35 araC::acrEF [17]: 320 µg/mL; Fold change of MICs [18]: 16 fold; Minimum Inhibitory Concentration, EKO-35 araC::emrAB [18]: 320 µg/mL; Fold change of MICs [19]: 1 fold; Minimum Inhibitory Concentration, EKO-35 araC::macAB [19]: 20 µg/mL |
